According to US8906911B2, “Chemokine receptor antagonists” (AbbVie Inc., priority 2012, dated 2014):
Like-named read-outs stand apart in the source and are kept apart here.

What was measured:
human CCR2B [1] = target: T1, human CCR2B (Homo sapiens (Human), UniProt P41597); test: Inhibition of [125I]-labeled MCP-1 binding to hCCR2B (radioligand binding in CHO cells)
Description: CHO cells expressing human CCR2B were generated as follows. cDNA for human CCR2B (cloned from human blood) was cloned into plasmid pcDNA3.1 (from Invitrogen). The resulting plasmids were separately transfected into CHO cells expressing human Gα16 (from Molecular Devices). […] CHO cells expressing rat CCR2 were generated as follows. cDNA for rat CCR2 (cloned from rat macrophage) was cloned into plasmid pEF-flag (from Chinese Academy of Science). The resulting plasmids were transfected into CHO cells expressing human Gα16 (from […]).
Inhibition of [^125I]-Labeled MCP-1 Binding to hCCR2B
Radioligand binding assays were performed in CHO cells expressing human CCR2B and Gα16 coupling protein. All compounds were dissolved in DMSO and assays run at a final DMSO concentration of 0.5% (v/v). [^125I]-labeled human MCP-1 was purchased from PerkinElmer. Unlabelled human MCP-1 was purchased from PeproTech.
Compounds were serially diluted in DMSO before diluting into assay buffer (25 mM HEPES, pH 7.4, 5 mM MgCl2, 1 mM CaCl2, 0.5% BSA) with cryo preserved CHO cells expressing human CCR2B and the Gα16 coupling protein (30×10^3/well) and [^125I]-MCP-1 (50 pM). The reaction was incubated at room temperature for 90 minutes before transferring to GF/C filter membrane (PerkinElmer) pre-treated with 0.3% polyethyleneimine for 2 hours at 4° C. The filter membrane was washed six times with ice cold wash buffer (25 mM HEPES, pH 7.4, 5 mM MgCl2, 1 mM CaCl2, 500 mM NaCl, 0.01% (m/v) azide), dried, and sealed in a RLB sample bag (Agilent Technologies) before adding 5.0 mL Microscint 20 to each bag. Membrane was counted on Microbeta counter where background binding was determined by the presence of 100 nM MCP-1 and control total binding was determined by addition of DMSO in place of the test compound. The radioactivity values (cpm) were used to calculate the percent inhibition at a given compound concentration and the data fit to a sigmoidal curve in a semi-log plot to determine IC50 values. The corresponding Ki value is calculated as follows:
Ki=IC50/(1+[radioligand]/Kd), where [radioligand] is the concentration of the label and Kd (dissociation constant) is determined in saturation experiment with different concentrations of labeled MCP-1.

human CCR2B [2] = target: T1, human CCR2B; test: Inhibition of native agonist (human MCP-1)-induced intracellular calcium release, calcium flux assay in CHO cells expressing human CCR2B and Gα16; type: cell-based; details: for IC50: read-out: hCCR2B IC50; for Kb: read-out: hCCR2B Kb
In short: (§1)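 Compound added to Calcium 4 dye-loaded adherent cells (dye loading 60 min, 37° C., HEPES pH 7.4 buffer with probenecid), then agonist: human MCP-1 at 2 nM final for hCCR2B cells, rat MCP-1 at 4 nM final for rCCR2 cells. FLIPR fluorescence change gave IC50. Kb=IC50/(1+[agonist]/EC50). Final DMSO 0.25%.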

rat CCR2 = rat CCR2 (Rattus norvegicus (Rat), UniProt O55193); test: Inhibition of native agonist (rat MCP-1)-induced intracellular calcium release, calcium flux assay in CHO cells expressing rat CCR2 and Gα16; type: cell-based; details: read-out: rCCR2 Kb
rat CCR2, sequence (O55193 whole entry): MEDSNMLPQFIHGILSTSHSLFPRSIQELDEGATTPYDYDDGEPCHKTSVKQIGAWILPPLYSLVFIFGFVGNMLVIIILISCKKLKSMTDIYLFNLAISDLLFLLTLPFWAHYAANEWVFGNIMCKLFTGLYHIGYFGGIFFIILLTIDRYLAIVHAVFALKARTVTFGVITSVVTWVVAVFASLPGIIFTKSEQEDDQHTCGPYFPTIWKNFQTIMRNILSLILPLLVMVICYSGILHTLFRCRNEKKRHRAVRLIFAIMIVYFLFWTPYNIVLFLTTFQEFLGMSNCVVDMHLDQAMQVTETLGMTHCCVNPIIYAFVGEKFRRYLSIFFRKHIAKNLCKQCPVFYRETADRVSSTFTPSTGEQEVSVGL
In short: as §1

[3] = mean Ki, [125I]-MCP-1 50 pM, CHO cells expressing human CCR2B and Gα16

T1 sequence (P41597 other isoform, or with tags, fused parts or gaps): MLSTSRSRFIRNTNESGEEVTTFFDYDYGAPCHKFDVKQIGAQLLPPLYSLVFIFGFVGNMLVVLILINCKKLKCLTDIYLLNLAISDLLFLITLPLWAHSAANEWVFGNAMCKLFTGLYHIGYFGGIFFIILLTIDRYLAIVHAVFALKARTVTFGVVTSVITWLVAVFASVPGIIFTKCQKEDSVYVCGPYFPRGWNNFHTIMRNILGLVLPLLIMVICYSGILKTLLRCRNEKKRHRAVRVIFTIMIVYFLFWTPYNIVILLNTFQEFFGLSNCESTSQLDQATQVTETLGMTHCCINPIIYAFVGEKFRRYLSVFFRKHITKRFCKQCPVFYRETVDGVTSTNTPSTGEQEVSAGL

Row | SMILES | Ki (human CCR2B [1]; [3]) | IC50 (human CCR2B [2]) | Kb (human CCR2B [2]) | Kb (rat CCR2) | IC50 (human CCR2B [2]; calcium flux, human MCP-1 2 nM) | Ki (human CCR2B [1])
1 | CO[C@@H]1COCC[C@@H]1N[C@@H]1C[C@H]2CCC[C@@]2(C(=O)N2C[C@@H]3C[C@H]2CN3c2cc(C(F)(F)F)ccc2C(F)(F)F)C1 [Example 50, 1,5-anhydro-3-{[(2R,3aR,6aR)-3a-({(1S,4S)-5-[2,5-bis(trifluoromethyl)phenyl]-2,5-diazabicyclo[2.2.1]hept-2-yl}carbonyl)octahydropentalen-2-yl]amino}-2,3-dideoxy-4-O-methyl-D-erythro-pentitol] | 78 nM | 25.9 nM | 6 nM | 6 nM |  | 
2 | CO[C@@H]1COCC[C@@H]1N(C)[C@@H]1C[C@H]2CCC[C@@]2(C(=O)N2C[C@@H]3C[C@H]2CN3c2cc(C(F)(F)F)ccc2C#N)C1 [Example 53, 1,5-anhydro-3-{[(2R,3aR,6aR)-3a-({(1S,4S)-5-[2-cyano-5-(trifluoromethyl)phenyl]-2,5-diazabicyclo[2.2.1]hept-2-yl}carbonyl)octahydropentalen-2-yl](methyl)amino}-2,3-dideoxy-4-O-methyl-D-erythro-pentitol] | 16 nM | 47.9 nM | 12 nM | 26 nM |  | 
3 | CO[C@@H]1COCC[C@@H]1N(C)[C@@H]1C[C@H]2CCC[C@@]2(C(=O)N2C[C@@H]3C[C@H]2CN3c2cc(C(F)(F)F)ccn2)C1 [Example 7, 1,5-anhydro-2,3-dideoxy-4-O-methyl-3-{methyl[(2R,3aR,6aR)-3a-({(1S,4S)-5-[4-(trifluoromethyl)pyridin-2-yl]-2,5-diazabicyclo[2.2.1]hept-2-yl}carbonyl)octahydropentalen-2-yl]amino}-D-erythro-pentitol] | 30 nM |  | 16 nM | 10 nM | 65.7 nM | 
4 | CO[C@@H]1COCC[C@@H]1N[C@@H]1C[C@H]2CCC[C@@]2(C(=O)N2C[C@@H]3C[C@H]2CN3c2ccc(C#N)c(C(F)(F)F)c2)C1 (racemic) [Example 39, 1,5-anhydro-3-{[(2R,3aR,6aR)-3a-({(1S,4S)-5-[4-cyano-3-(trifluoromethyl)phenyl]-2,5-diazabicyclo[2.2.1]hept-2-yl}carbonyl)octahydropentalen-2-yl]amino}-2,3-dideoxy-4-O-methyl-D-erythro-pentitol] |  |  | 14 nM | 3 nM | 55.3 nM | 66 nM
5 | CO[C@@H]1COCC[C@H]1N[C@@H]1C[C@H]2CCC[C@@]2(C(=O)N2C[C@@H]3C[C@H]2CN3c2cc(C(F)(F)F)ccn2)C1 [Example 1, 1,5-anhydro-2,3-dideoxy-4-O-methyl-3-{[(2R,3aR,6aR)-3a-({(1S,4S)-5-[4-(trifluoromethyl)pyridin-2-yl]-2,5-diazabicyclo[2.2.1]hept-2-yl}carbonyl)octahydropentalen-2-yl]amino}-D-threo-pentitol] | 32 nM |  | 14 nM | 23 nM | 54.9 nM | 
6 | CO[C@@H]1COCC[C@@H]1N[C@@H]1C[C@H]2CCC[C@@]2(C(=O)N2C[C@@H]3C[C@H]2CN3c2cccc(OC(F)(F)F)c2)C1 [Example 29, 1,5-anhydro-2,3-dideoxy-4-O-methyl-3-{[(2R,3aR,6aR)-3a-({(1S,4S)-5-[3-(trifluoromethoxy)phenyl]-2,5-diazabicyclo[2.2.1]hept-2-yl}carbonyl)octahydropentalen-2-yl]amino}-D-erythro-pentitol] | 473 nM |  | 36 nM | 8 nM | 148 nM | 
7 | CO[C@@H]1COCC[C@@H]1N[C@@H]1C[C@H]2CCC[C@@]2(C(=O)N2C[C@@H]3C[C@H]2CN3c2cc(C(F)(F)F)ccc2C)C1 [Example 16, 1,5-anhydro-2,3-dideoxy-4-O-methyl-3-{[(2R,3aR,6aR)-3a-({(1S,4S)-5-[2-methyl-5-(trifluoromethyl)phenyl]-2,5-diazabicyclo[2.2.1]hept-2-yl}carbonyl)octahydropentalen-2-yl]amino}-D-erythro-pentitol] | 199 nM | 106 nM | 26 nM | 7 nM |  | 
8 | CO[C@@H]1COCC[C@@H]1N[C@@H]1C[C@H]2CCC[C@@]2(C(=O)N2C[C@@H]3C[C@H]2CN3c2ccnc(C(F)(F)F)c2)C1 [Example 26, 1,5-anhydro-2,3-dideoxy-4-O-methyl-3-{[(2R,3aR,6aR)-3a-({(1S,4S)-5-[2-(trifluoromethyl)pyridin-4-yl]-2,5-diazabicyclo[2.2.1]hept-2-yl}carbonyl)octahydropentalen-2-yl]amino}-D-erythro-pentitol] | 792 nM |  | 147 nM | 22 nM | 598 nM | 
9 | CO[C@@H]1COCC[C@@H]1N[C@@H]1C[C@H]2CCC[C@@]2(C(=O)N2C[C@@H]3C[C@H]2CN3c2ccc(F)c(C(F)(F)F)c2)C1 [Example 15, 1,5-anhydro-2,3-dideoxy-3-{[(2R,3aR,6aR)-3a-({(1S,4S)-5-[4-fluoro-3-(trifluoromethyl)phenyl]-2,5-diazabicyclo[2.2.1]hept-2-yl}carbonyl)octahydropentalen-2-yl]amino}-4-O-methyl-D-erythro-pentitol] | 29 nM | 34.7 nM | 9 nM | 3 nM |  | 
10 | O=C(N1C[C@@H]2C[C@H]1CN2c1cc(C(F)(F)F)ccn1)[C@@]12CCC[C@@H]1C[C@@H](N1CCC(c3ccccc3)CC1)C2 [Example 49, [(2R,3aR,6aR)-2-(4-phenylpiperidin-1-yl)hexahydropentalen-3a(1H)-yl]{(1S,4S)-5-[4-(trifluoromethyl)pyridin-2-yl]-2,5-diazabicyclo[2.2.1]hept-2-yl}methanone] | 15 nM | 37 nM | 9 nM | 23 nM |  | 
11 | CO[C@@H]1COCC[C@@H]1N[C@@H]1C[C@H]2CCC[C@@]2(C(=O)N2C[C@@H]3C[C@H]2CN3c2cc(F)cc(C(F)(F)F)c2)C1 [Example 25, 1,5-anhydro-2,3-dideoxy-3-{[(2R,3aR,6aR)-3a-({(1S,4S)-5-[3-fluoro-5-(trifluoromethyl)phenyl]-2,5-diazabicyclo[2.2.1]hept-2-yl}carbonyl)octahydropentalen-2-yl]amino}-4-O-methyl-D-erythro-pentitol] | 271 nM |  | 23 nM | 5 nM | 92.2 nM | 
12 | CO[C@@H]1COCC[C@@H]1N[C@@H]1C[C@H]2CCC[C@@]2(C(=O)N2C[C@@H]3C[C@H]2CN3c2ccc(Cl)c(Cl)c2)C1 [Example 40, 1,5-anhydro-2,3-dideoxy-3-{[(2R,3aR,6aR)-3a-{[(1S,4S)-5-(3,4-dichlorophenyl)-2,5-diazabicyclo[2.2.1]hept-2-yl]carbonyl}octahydropentalen-2-yl]amino}-4-O-methyl-D-erythro-pentitol] | 38 nM |  | 10 nM | 3 nM | 41.5 nM | 
13 | CO[C@@H]1COCC[C@@H]1N[C@@H]1C[C@H]2CCC[C@@]2(C(=O)N2C[C@@H]3C[C@H]2CN3c2ccnc(C(F)(F)F)n2)C1 [Example 27, 1,5-anhydro-2,3-dideoxy-4-O-methyl-3-{[(2R,3aR,6aR)-3a-({(1S,4S)-5-[2-(trifluoromethyl)pyrimidin-4-yl]-2,5-diazabicyclo[2.2.1]hept-2-yl}carbonyl)octahydropentalen-2-yl]amino}-D-erythro-pentitol] | 444 nM |  | 96 nM | 19 nM | 391 nM | 
14 | CO[C@@H]1COCC[C@@H]1N[C@@H]1C[C@H]2CCC[C@@]2(C(=O)N2C[C@@H]3C[C@H]2CN3c2ccc(C)c(C(F)(F)F)c2)C1 [Example 19, 1,5-anhydro-2,3-dideoxy-4-O-methyl-3-{[(2R,3aR,6aR)-3a-({(1S,4S)-5-[4-methyl-3-(trifluoromethyl)phenyl]-2,5-diazabicyclo[2.2.1]hept-2-yl}carbonyl)octahydropentalen-2-yl]amino}-D-erythro-pentitol] | 306 nM |  | 57 nM | 12 nM | 233 nM | 
